Experiments:
Arf1 = Arf1 expression in rat neuronal cultures (proteomics, Western blot); assay type: cell-based; conditions: IFNα 300 IU/ml
Protocol: (§1) Rat neurons were either obtained from Brain Bits (Cat #SDECX; embryonic day 18) and cultured in NBACTIV1 media (Cat #nbactivl) until day 14, when they are relatively “mature”, or cortical neurons were prepared from embryonic day 18 Sprague Dawley fetuses. Two different densities of neurons were utilized, based on test procedures. For PSD-95 puncta, low density cultures (10,000 neurons/cm') were placed on 12 mm poly D Lysine (Sigma cat #2636) coated coverslips, incubated in wells with glia (astrocytes) or removed for IFNα (300 IU/ml) exposure. High density cultures (500,000 neurons/60 mm dish) were used for protein extraction. These cultures contained approximately 2-3% glia (GFAP immunostaining).
Protein samples (5 to 10 micrograms) were resolved in Criterion precast gels (Bio-Rad) and transferred to a PVDF membrane using a semidry system (Bio-Rad). All blocking antibody and washing steps were performed at room temperature (RT) on a rocker. Membranes were incubated for one hour in 3% non-fat dry milk in TBST (25 mM Tris, 140 mM NaCl, 3 mM KCl, and 0.05% Tween-20), then 4 hr in anti-Arfl antibody (cat #ARP75924_P050, Aviva; 1:1000) diluted in 1% non-fat dry milk in TBST. Membranes were briefly washed in TBST followed by 3 separate 5 minute incubations in TBST. Membranes were incubated for one hour with goat anti-rabbit IgG HRP (cat #NEF812001EA, Perkin Elmer 1:5,000) diluted in 1% non-fat dry milk in TBST. Final washing included a quick rinse with ddH2O, 2 min wash in TBST, 4 min wash in TBST, and 5 min wash in 1× TBS. Immunoreactive bands were detected with chemiluminescence using ECL Prime substrate (cat #RPN2236, GE Healthcare Life Sciences) on a Chemidoc imager (Bio-Rad), and quantified with ImageJ (NIH). Arf1 signal was normalized to GAPDH Western blot (WB) intensity (cat #MAB374, Millipore;1:20,000).
For proteomic analysis of total protein, rat cortical neurons were cultured in 60 mm dishes in high density (described above). After 14 days, cells were treated with 300 IU/mL IFNα for 20 min, 2 hr, 8 hr, 24 hr, or 48 hr. For comparison of the proteome, untreated cells were given sterile, distilled water (vehicle) equal to the volume of IFNα. After incubations, cells were washed once in RT phosphate buffered saline (PBS) and scraped into 500 microliters of PBS. Cell slurries were snap frozen in a dry ice ethanol bath and processed by the Emory University Proteomics Core.
To select proteins for further analysis, GO-Elite software was used. […] These lists of accession numbers were derived by identifying proteins for which the total peptide spectral match (PSM) was seven-fold (or more) lower in the IFNα treated sample than in the control sample. […] Thus, Arfl was selected for WB analysis.

rat neurons = assay: PSD-95 puncta on rat neurons exposed to IFNα; assay type: cell-based; conditions: IFNα 300 IU/mL, compared to control neurons
Protocol: as §1
Rat neurons were seeded on poly-L-lysine coated coverslips and co-cultured with astroglia. On day 14, half of the conditioned medium from co-culture was transferred to new 6 well plates. […] PSD-95 puncta were identified and counted with SYNPANAL software. […] PSD-95 puncta along the region were counted and divided by the length to obtain PSD-95 puncta/unit. […] For each treatment, the average puncta/unit was determined by averaging the puncta/unit for each neuron (at least 10/treatment in each replicate plate). For each treatment within the experiment, the average puncta/unit is determined by averaging the puncta/unit for each replicate of that treatment (thus, n=3/treatment) for 20 min and 2 hours. […]

AMPA receptor (AMPAR) = assay: AMPA receptor (GLuR2) immunofluorescent staining of rat neurons; assay type: cell-based; conditions: IFNα exposure for 2 hours
Protocol: Rat neurons were fixed with 4% paraformaldehyde in PBS for 20 min at RT. They were incubated with anti-GLuR2 (EMD Millipore, Burlington Mass.; 1:100), a subunit of the AMPA receptor (AMPAR), for 1 hour at RTO in the dark. After washes, this was followed by incubation with DAPI […] (Images were subjected ImageJ software for densitometric analysis).

rat neuronal cultures = conditions: mediated through IFNAR and NMDAR, earlier studies; cited from earlier work

For IFNα, the “Arf1 level (Western blot)” value (Arf1; 2 hours) was “decreases”, the “Arf1 level (Western blot)” value (Arf1; 4 hours) was “decreases” and the “Arf1 level (Western blot)” value (Arf1; 8 hours (data not shown)) was “decreased”. For the same substance, the “Arf1 level (Western blot)” value (Arf1; 24 hours (data not shown)) was “not consistently”, the PSD-95 puncta (rat neurons; 20 minutes) was “significantly decreased” and the PSD-95 puncta (rat neurons; 2 hours) was “significantly decreased”. For the same substance, the “neuronal surface expression of AMPARs” value (AMPA receptor (AMPAR)) was “significantly decreased” and the “effect on dendrites of rat neuronal cultures” value (rat neuronal cultures) was “dendritic simplification”.

Source: patent US11690895B2, “Compositions and methods of interferon alpha binding proteins” (priority 2017, dated 2023)
